Measurements taken from PMC9688808, “Discovery of Novel Lin28 Inhibitors to Suppress Cancer Cell Stemness” (Cancers, 2022).

What was measured:
[1] = system: DUNE cells; assay: Colony formation assay, DUNE cells; format: cell-based; details: 20 uM (Figure 7C)
Experimental: (§1) There are several standard molecular techniques, including real-time qPCR, flow cytometry, cell proliferation, colony formation, and immunoblotting assays, that have been reported previously by our lab.
(§2) Figure 7 Lin28 inhibitors block CSC phenotypes of cancer cells. (A) FACS analysis using CD44 and CD133 antibodies detected CSC cell populations from DUNE or DUNE (KO) cells treated with either vehicle or 20 uM of Ln7, Ln15, and Ln115 for 48 h. (B) DUNE, DUNE (KO), and IGROV1 cell proliferation were measured in the presence of 20 uM of Ln7, Ln15, and Ln115. (C) Colony formation assays (colonies >[…] were counted) measured the suppressive effects of Ln7, Ln15, and Ln115 at the concentration of 20 uM. p-value ≤ 0.01—(**); ≤0.001—(***).
Figure S4. A. Colony formation assays: DUNE cells were seeded in 500 cells/well. Chemicals were added one day after cell seeding (n=3 wells/chemical). Medium with chemical at the concentration of 60uM was changed every four days for 14 days. […]
0.005% crystal violet staining for 2 hours. ImageJ was used to analyze colony size and numbers (circularity was set at 0.5 -1, which is equivalent to 50uM in size). Only colonies larger than […]
50uM were countered. […]
(1 picture or pasted object on this page, not shown here)

[2] = system: DUNE cells; assay: Real-time qPCR of CSC and neuroendocrine biomarkers in DUNE cells; format: cell-based; details: 20 uM, 48 h
Experimental: as §1
Figure 6 Lin28 inhibitors block the expression of NE and CSC biomarkers. DUNE cells were treated with 20 uM of the indicated compound for 48 h. Real-time qPCR measured RNA levels of neuroendocrine (A) and CSC (B) biomarkers. Three biological replicates were performed and all results are presented as mean +/− SD. p-value ≤ 0.05—(*); ≤0.01—(**); ≤0.001—(***).

[3] = system: DUNE cells; assay: FACS analysis of CD44 and CD133 positive cell populations; format: cell-based; details: 20 uM, 48 h; for % of CD133+ cells: paired vehicle 60.8–65.4; for % CD44+ cells: paired vehicle 84.7–94.9
Experimental: as §1, §2

[4] = target: T1, Lin28B CSD+ZKD (Homo sapiens, UniProt Q6ZN17); assay: Fluorescence polarization (FP) assay, Lin28 CSD+ZKD with FAM-labeled Let-7 probe; format: binding; details: 20 uM compound; for inhibition at 20 µM: read-out: inhibition of FP signals
T1 construct: Lin28B CSD+ZKD (aa7-204); His-tag; made in house; host or cells: Escherichia coli BL21
T1 sequence (Q6ZN17 7-204): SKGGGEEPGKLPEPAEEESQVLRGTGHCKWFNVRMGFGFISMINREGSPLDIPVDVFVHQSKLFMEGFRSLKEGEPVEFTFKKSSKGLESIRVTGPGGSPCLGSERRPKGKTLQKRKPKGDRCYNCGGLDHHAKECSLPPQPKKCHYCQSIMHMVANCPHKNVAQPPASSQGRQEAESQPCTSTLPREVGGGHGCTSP
Source text: ZINC compounds were purchased from Enamine (Kyiv, Ukraine), Life Chemicals Ltd. (Kyiv, Ukraine), or Princeton Biomolecular Research (Princeton, NJ, USA) with >90% purity. Upon receiving the compounds, the molecular masses were validated by LC/MS/MS. His-tagged human Lin28B ZKD (aa110-174), Lin28B CSD+ZKD (aa7-204), and Lin28A ZKD (aa121-187) were expressed in Escherichia coli BL21 cells and purified by immobilized metal ion affinity chromatography (IMAC) with nickel nitrilotriacetic acid (NiNTA) resin and size exclusion chromatography (s75 10/300 GL) as we have previously reported.
The fluorescein amidites (FAM)-tagged Let-7 probe with the sequence of […] was purchased from Integrated DNA Technologies (IDT). The probe at the concentrations ranging from 1 nM to 50 uM was incubated with Lin28B (ZKD) or Lin28 (CSD+ZKD) to a final volume of 30 uL at room temperature for 20 min. To read the fluorescence, a TECAN 500 machine was used. Fluorescence polarization was calculated using the following equation: P=Fparrallel−Fperpendicular/Fparrallel+Fperpendicular where P is the fluorescence polarization reading, F parallel is the fluorescence intensity acquired from the parallel excitation plane, and F perpendicular is the fluorescence intensity acquired from the perpendicular direction of the excitation plane. The total fluorescence intensity is estimated using the following equation: F=Fparallel+2Fperpendicular
All the raw FP signal data from the TECAN 500 FP results were analyzed using Prism 8.0 (GraphPad, San Diego, CA, USA); normalized curves were plotted and IC50 values were estimated. All FP data were repeated three to five times.
To test the predicted compounds by CADD, we established an FP assay using both Lin28B ZKD and Lin28B CSD+ZKD to be incubated with a FAM-labeled Let-7 oligo containing the GGAG motif. To validate that the signals obtained from FP assays reflect the interaction between Lin28 and Let-7, we have tested: (1) 1 nM–50 uM FAM-labeled Let-7 probes with 10 uM Lin28 proteins and observed a dose-dependent reduction of FP signal; (2) 1 nM FAM labeled Let-7 probes with 1 nM–50 uM Lin28 proteins and observed a dose-dependent increase of FP signal; (3) 1 nM–50 uM doses of non-labeled Let-7 oligo to be incubated with 1 nM FAM probe and 10 uM Lin28 proteins, and observed a dose-dependent reduction of FP signal (Figure 2A,B).
We then screened all 163 molecules predicted by the CADD pipeline by using the FP assays with 10 uM of Lin28B ZKD protein and 1 nM of FAM-labeled Let-7 probe. Compounds Li71 and 1632 were also included and served as positive controls. We used 60% inhibition of FP signals by 20 uM of the tested compounds as the cut-off and found 15 active compounds achieving a hit rate of 9% (15/163) (Figure 2C left). […]

Row | inhibition at 20 µM [4] | inhibition of FP signals [4] | Compound | formation of cancer cell colonies [1] | expression of CSC markers (IGF2BP1, CDH2, FOXD3, HEY1, ALDH1A2, CDK6, FOXC1, SIX2, ID4) [2] | expression of neuroendocrine markers (ASCL1, CHGB, SCGN, SYP, STT4) [2] | CD44- and CD133-positive cell populations [3] | % of CD133+ cells [3] | % CD44+ cells [3] | suppressive effect on colony formation ([1]; colonies >50 uM counted) | suppression of CDH2 expression [2] | suppression of FOXD3 expression [2]
1 | – | ~ 30% | CCOc1cccc2c1N[C@@H](c1ccc(C(=O)O)cc1)[C@H]1CC=C[C@@H]21 [Li71, reference compound] | strongly suppressed | variable mild inhibitory effects or no inhibition | – | – | – | – | – | – | –
2 | ~20% | – | O=c1cccc(-c2nc3cc(F)c(O)cc3c(=O)[nH]2)[nH]1 [Ln115] | strongly suppressed | reductions | blocked | significant reductions | 30 ± 4.5% | 54.3 ± 6.0% | – | up to 90% | up to 90%

The remaining lines, values behind:

Row | Compound | inhibition at 20 µM [4] | inhibition of FP signals [4] | formation of cancer cell colonies [1] | expression of CSC markers (IGF2BP1, CDH2, FOXD3, HEY1, ALDH1A2, CDK6, FOXC1, SIX2, ID4) [2] | expression of neuroendocrine markers (ASCL1, CHGB, SCGN, SYP, STT4) [2] | CD44- and CD133-positive cell populations [3] | % of CD133+ cells [3] | % CD44+ cells [3] | suppressive effect on colony formation ([1]; colonies >50 uM counted) | suppression of CDH2 expression [2] | suppression of FOXD3 expression [2]
3 | CCc1cc(=O)[nH]c(Nc2cc(Cl)ccc2O)n1 [Ln7] | ~50% | – | strongly suppressed | reductions | blocked | significant reductions | 37.1 ± 4.2% | 61.6 ± 3.2% | – | – | –
4 | CC(=O)N(C)c1cccc(-c2ccc3nnc(C)n3n2)c1 [compound 1632, reference compound] | – | – | strongly suppressed | variable mild inhibitory effects or no inhibition | – | – | – | – | – | – | –
5 | O=c1[nH]c(Nc2ccccc2O)cs1 [Ln15] | ~50% | – | strongly suppressed | reductions | blocked | significant reductions | 14.7 ± 2.1% | 70.1 ± 4.6% | ~ 90% | – | –
